Assay results reported in paper PMC8508660 (2021).

What was measured:
[1] = test system: 22HT (DNA, G4) AGGGTTAGGGTTAGGGTTAGGG; test: CD melting, 290 nm; conditions: 100 mM K+; 10 mM cacodylate pH 7.2; 2 µM DNA, 3 equiv. (6 µM) ligand; derived from two Tm (±0.5)
[2] = test system: 22HT (DNA, G4) AGGGTTAGGGTTAGGGTTAGGG; test: CD melting, 295 nm; conditions: 100 mM Na+; 10 mM cacodylate pH 7.2; 2 µM DNA, 3 equiv. (6 µM) ligand; derived from two Tm (±0.5)
[3] = test system: c-MYC (DNA, G4) TGAGGGTGGGTAGGGTGGGTAA; test: CD melting, 265 nm; conditions: 10 mM K+, 90 mM Li+; 10 mM cacodylate pH 7.2; 2 µM DNA, 3 equiv. (6 µM) ligand; derived from two Tm (±0.5)
[4] = test system: TBA (DNA, aptamer) GGTTGGTGTGGTTGG; test: CD melting, 295 nm; conditions: 100 mM K+; 10 mM cacodylate pH 7.2; 2 µM DNA, 3 equiv. (6 µM) ligand; derived from two Tm (±0.5)

- ΔTm [1]: 0.7 °C
- ΔTm [2]: -0.2 °C
- ΔTm [3]: -0.2 °C
- ΔTm [4]: -0.4 °C
SMILES: COc1nc2c(N)ncnc2[n+]2ccccc12
